{"source": "paper PMC3849129", "about": "(International journal of antimicrobial agents, 2013)", "key": {"PA 9019": {"test_system": "PA 9019", "details": "PA 9019, MDR bloodstream isolate; previously determined; cited from earlier work"}, "[1]": {"test_system": "Pseudomonas aeruginosa ATCC 27853 (PA 27853)", "details": "previously determined; cited from earlier work"}, "Epithelial lining fluid": {"experiment": "Epithelial lining fluid", "assay_type": "in vivo, Swiss Webster mice", "details": "for Time post dose up to which component could be quantified in ELF: mouse, in vivo"}, "[2]": {"experiment": "Serum pharmacokinetics after intravenous administration in mice", "details": "female, ND4 Swiss Webster, mouse, in vivo, 3 mg/kg"}}, "note": "Positions of bridges follow the written chain, without caps; N, C: chain ends. Non-standard residues stand in square brackets, D forms with d. Residues, ends and D or L forms follow the SMILES beside them. *: point of attachment. Heptanoyl(6-Me) = CC(C)CCCCC(=O)*; X1 = CC[C@H](C)CCCCC(=O)*; Octanoyl = CCCCCCCC(=O)*; Dab = NCC[C@H](N)C(=O)O"}
{"compound": "Polymyxin B [PB]", "values": [{"measurement": "MIC", "setting": "PA 9019", "result": 4, "unit": "mg/L"}, {"measurement": "MIC", "setting": "[1]", "result": 2, "unit": "mg/L"}]}
{"compound": "CC(C)CCCCC(=O)N[C@@H](CCN)C(=O)N[C@H](C(=O)N[C@@H](CCN)C(=O)N[C@H]1CCNC(=O)[C@H]([C@@H](C)O)NC(=O)[C@H](CCN)NC(=O)[C@H](CCN)NC(=O)[C@H](CC(C)C)NC(=O)[C@@H](Cc2ccccc2)NC(=O)[C@H](CCN)NC1=O)[C@@H](C)O", "note": "[PB2, polymyxin B2] ({Heptanoyl(6-Me)}-[Dab]T[Dab][Dab][Dab][dF]L[Dab][Dab]T; lactam 4-C)", "values": [{"measurement": "Time post dose up to which component could be quantified in ELF", "setting": "Epithelial lining fluid", "result": "up to 2 h"}]}
{"compound": "CC[C@H](C)CCCCC(=O)N[C@@H](CCN)C(=O)N[C@H](C(=O)N[C@@H](CCN)C(=O)N[C@H]1CCNC(=O)[C@H]([C@@H](C)O)NC(=O)[C@H](CCN)NC(=O)[C@H](CCN)NC(=O)[C@H](CC(C)C)NC(=O)[C@@H](Cc2ccccc2)NC(=O)[C@H](CCN)NC1=O)[C@@H](C)O", "note": "[PB1, polymyxin B1] (X1-[Dab]T[Dab][Dab][Dab][dF]L[Dab][Dab]T; lactam 4-C)", "values": [{"measurement": "half-life", "setting": "[2]", "result": 19.2, "unit": "min"}, {"measurement": "AUC ratio (liposome:solution) in epithelial lining fluid", "setting": "Epithelial lining fluid; ELF AUC0–6h, i.v. ca. 3 mg/kg, mice", "result": 6.21}]}
{"compound": "CC[C@H](C)CCCCC(=O)N[C@@H](CCN)C(=O)N[C@H](C(=O)N[C@@H](CCN)C(=O)N[C@H]1CCNC(=O)[C@H]([C@@H](C)O)NC(=O)[C@H](CCN)NC(=O)[C@H](CCN)NC(=O)[C@H]([C@@H](C)CC)NC(=O)[C@@H](Cc2ccccc2)NC(=O)[C@H](CCN)NC1=O)[C@@H](C)O", "note": "[ile-PB1, isoleucine-B1] (X1-[Dab]T[Dab][Dab][Dab][dF]I[Dab][Dab]T; lactam 4-C)", "values": [{"measurement": "Time post dose up to which component could be quantified in ELF", "setting": "Epithelial lining fluid", "result": "up to 2 h"}]}
{"compound": "CCCCCCCC(=O)N[C@@H](CCN)C(=O)N[C@H](C(=O)N[C@@H](CCN)C(=O)N[C@H]1CCNC(=O)[C@H]([C@@H](C)O)NC(=O)[C@H](CCN)NC(=O)[C@H](CCN)NC(=O)[C@H](CC(C)C)NC(=O)[C@@H](Cc2ccccc2)NC(=O)[C@H](CCN)NC1=O)[C@@H](C)O", "note": "[PB3, polymyxin B3] (Octanoyl-[Dab]T[Dab][Dab][Dab][dF]L[Dab][Dab]T; lactam 4-C)", "values": [{"measurement": "Time post dose up to which component could be quantified in ELF", "setting": "Epithelial lining fluid", "result": "up to 2 h"}]}
